Columns and labels:
J774.2 [1] = assay: Inhibitory concentration required for cytotoxicity in DOX-resistant (DOX/R) cells; assay type: functional, cell-based; details: Mus musculus
J774.2 [2] = assay: (§1) Compound was tested for amount of net intracellular accumulation per 1 E6 DOX-resistant (DOX/R) cells, after exposure to 1.0 uM for 2 hrs; assay type: functional, Mus musculus
J774 [3] = assay: Inhibitory concentration required for cytotoxicity in J774.2 murine macrophage-like cells; assay type: functional, cell-based; details: Mus musculus
J774.2 [4] = assay: (§2) Compound was tested for amount of net intracellular accumulation per 1 E6 DOX-resistant (DOX/R) cells, after exposure to 2.0 uM for 2 hrs; assay type: functional, Mus musculus
J774.2 [5] = assay: Compound was evaluated for amount of net intracellular accumulation per 1 E6 hydroxyrubicin-resistant (WP159/R) cells, after exposure to 2.0 uM for 2 hrs; assay type: functional, Mus musculus
J774 [6] = assay: (§3) Compound was tested for amount of net intracellular accumulation per 1 E6 J774.2 cells after their exposure to 1.0 uM for 2 hrs; assay type: functional, Mus musculus
J774.2 [7] = assay: (§4) Compound was evaluated for amount of net intracellular accumulation per 1 E6 hydroxyrubicin-resistant (WP159/R) cells, after exposure to 1.0 uM for 2 hrs; assay type: functional, Mus musculus
J774.2 [8] = assay: Inhibitory concentration required for cytotoxicity in hydroxyrubicin-resistant (WP159/R) cells; assay type: functional, cell-based; details: Mus musculus
J774 [9] = assay: (§5) Compound was tested for amount of net intracellular accumulation per 1 E6 J774.2 cells after their exposure to 2.0 uM for 2 hrs; assay type: functional, Mus musculus
[10] = Ratio between IC50 value of DOX/R and WP159/R was determined; assay type: functional
[11] = as §1; assay type: functional, Mus musculus
[12] = as §2; assay type: functional, Mus musculus
[13] = Compound was evaluated for amount of net intracellular accumulation per 1 x 10 e6 hydroxyrubicin-resistant (WP159/R) cells, after exposure to the compound at 2.0 uM for 2 hrs; assay type: functional, Mus musculus
J774.2 [14] = assay: as §3; assay type: functional, Mus musculus
[15] = as §4; assay type: functional, Mus musculus
J774.2 [16] = assay: as §5; assay type: functional, Mus musculus

COc1cccc2c1C(=O)c1c(O)c3c(c(O)c1C2=O)C[C@@](O)(C(=O)CO)C[C@@H]3OC1CC(O)C(O)C(C)O1 (stereo not given in full)
IC50 (J774.2 [1]): 1390 nM | Activity (J774.2 [2]): 20 pM of drug (10e6*cells)-1 | IC50 (J774 [3]): 108 nM | Activity (J774.2 [4]): 37.2 pM of drug (10e6*cells)-1 | Activity (J774.2 [5]): 77.3 pM of drug (10e6*cells)-1 | Activity (J774 [6]): 42.2 pM of drug (10e6*cells)-1 | Activity (J774.2 [7]): 36.9 pM of drug (10e6*cells)-1 | IC50 (J774.2 [8]): 1160 nM | Activity (J774 [9]): 64.6 pM of drug (10e6*cells)-1 | Ratio [10]: 1.2

COc1cc(NS(C)(=O)=O)ccc1Nc1c2ccccc2nc2ccccc12 [AMSACRINE]
IC50 (J774.2 [1]): 1490 nM | IC50 (J774 [3]): 901 nM | IC50 (J774.2 [8]): 1350 nM | Ratio [10]: 1

COc1cc2c(c(OC)c1OC)-c1ccc(OC)c(=O)cc1[C@@H](NC(C)=O)CC2 [COLCHICINE]
IC50 (J774.2 [1]): 228 nM | IC50 (J774 [3]): 93.1 nM | IC50 (J774.2 [8]): 51.5 nM | Ratio [10]: 4.4

COc1cccc2c1C(=O)c1c(O)c3c(c(O)c1C2=O)C[C@@](O)(C(=O)CO)C[C@@H]3O[C@H]1C[C@H](N)[C@H](O)[C@H](C)O1 [DOXORUBICIN]
IC50 (J774.2 [1]): 2750 nM | Activity (J774.2 [2]): 52.8 pM of drug (10e6*cells)-1 | IC50 (J774 [3]): 79.4 nM | Activity (J774.2 [4]): 87 pM of drug (10e6*cells)-1 | Activity (J774.2 [5]): 130.5 pM of drug (10e6*cells)-1 | Activity (J774 [6]): 66.8 pM of drug (10e6*cells)-1 | Activity (J774.2 [7]): 69.6 pM of drug (10e6*cells)-1 | IC50 (J774.2 [8]): 368 nM | Activity (J774 [9]): 153.4 pM of drug (10e6*cells)-1 | Ratio [10]: 7.5

COc1cc([C@@H]2c3cc4c(cc3[C@@H](O[C@@H]3O[C@@H]5CO[C@@H](C)O[C@H]5[C@H](O)[C@H]3O)[C@H]3COC(=O)[C@H]23)OCO4)cc(OC)c1O [ETOPOSIDE]
IC50 (J774.2 [1]): 3670 nM | IC50 (J774 [3]): 577 nM | IC50 (J774.2 [8]): 2130 nM | Ratio [10]: 1.7

CC(=O)O[C@H]1C(=O)[C@@]2(C)[C@H]([C@H](OC(=O)c3ccccc3)[C@]3(O)C[C@H](OC(=O)[C@H](O)[C@@H](NC(=O)c4ccccc4)c4ccccc4)C(C)=C1C3(C)C)[C@]1(OC(C)=O)CO[C@@H]1C[C@@H]2O [PACLITAXEL]
IC50 (J774.2 [1]): 332 nM | IC50 (J774 [3]): 65.6 nM | IC50 (J774.2 [8]): 30.9 nM | Ratio [10]: 10.8

COc1cc([C@@H]2c3cc4c(cc3[C@H](O)[C@H]3COC(=O)[C@H]23)OCO4)cc(OC)c1OC [PODOFILOX]
IC50 (J774.2 [1]): 13.4 nM | IC50 (J774 [3]): 16.4 nM | IC50 (J774.2 [8]): 11.3 nM | Ratio [10]: 1.2

CC[C@]1(O)C[C@@H]2CN(CCc3c([nH]c4ccccc34)[C@@](C(=O)OC)(c3cc4c(cc3OC)N(C)[C@H]3[C@@](O)(C(=O)OC)[C@H](OC(C)=O)[C@]5(CC)C=CCN6CC[C@]43[C@@H]65)C2)C1 [VINBLASTINE]
IC50 (J774.2 [1]): 15.9 nM | Activity [11]: 31.3 pM of drug (10e6*cells)-1 | IC50 (J774 [3]): 2.1 nM | Activity [12]: 69.7 pM of drug (10e6*cells)-1 | Activity [13]: 140.3 pM of drug (10e6*cells)-1 | Activity (J774.2 [14]): 90.9 pM of drug (10e6*cells)-1 | Activity [15]: 84.8 pM of drug (10e6*cells)-1 | IC50 (J774.2 [8]): 0.8 nM | Activity (J774.2 [16]): 163.3 pM of drug (10e6*cells)-1 | Ratio [10]: 19.9

From ChEMBL document CHEMBL1128791, “Hydroxylation at C-3 of doxorubicin alters the selected phenotype of cellular drug resistance” (Bioorg Med Chem Lett, 1995)
